Assay results as given in patent publication US10800791B2, “Triazole ACC inhibitors and uses thereof” (Gilead Apollo, LLC, priority 2015, dated 2020).
Values after ≈ are worked out from the molar mass of the structure shown. Read-outs that look alike come from different tables or passages of the source.

Columns and labels:
human (hACC2) = human (hACC2) (Homo sapiens, UniProt O00763); assay: In vitro ACC inhibition assay (ADP-Glo), hACC2; assay type: biochemical; conditions: 5 nM ACC2, 20 μM ATP, 20 μM acetyl-CoA
Chain of human (hACC2) (O00763 whole entry): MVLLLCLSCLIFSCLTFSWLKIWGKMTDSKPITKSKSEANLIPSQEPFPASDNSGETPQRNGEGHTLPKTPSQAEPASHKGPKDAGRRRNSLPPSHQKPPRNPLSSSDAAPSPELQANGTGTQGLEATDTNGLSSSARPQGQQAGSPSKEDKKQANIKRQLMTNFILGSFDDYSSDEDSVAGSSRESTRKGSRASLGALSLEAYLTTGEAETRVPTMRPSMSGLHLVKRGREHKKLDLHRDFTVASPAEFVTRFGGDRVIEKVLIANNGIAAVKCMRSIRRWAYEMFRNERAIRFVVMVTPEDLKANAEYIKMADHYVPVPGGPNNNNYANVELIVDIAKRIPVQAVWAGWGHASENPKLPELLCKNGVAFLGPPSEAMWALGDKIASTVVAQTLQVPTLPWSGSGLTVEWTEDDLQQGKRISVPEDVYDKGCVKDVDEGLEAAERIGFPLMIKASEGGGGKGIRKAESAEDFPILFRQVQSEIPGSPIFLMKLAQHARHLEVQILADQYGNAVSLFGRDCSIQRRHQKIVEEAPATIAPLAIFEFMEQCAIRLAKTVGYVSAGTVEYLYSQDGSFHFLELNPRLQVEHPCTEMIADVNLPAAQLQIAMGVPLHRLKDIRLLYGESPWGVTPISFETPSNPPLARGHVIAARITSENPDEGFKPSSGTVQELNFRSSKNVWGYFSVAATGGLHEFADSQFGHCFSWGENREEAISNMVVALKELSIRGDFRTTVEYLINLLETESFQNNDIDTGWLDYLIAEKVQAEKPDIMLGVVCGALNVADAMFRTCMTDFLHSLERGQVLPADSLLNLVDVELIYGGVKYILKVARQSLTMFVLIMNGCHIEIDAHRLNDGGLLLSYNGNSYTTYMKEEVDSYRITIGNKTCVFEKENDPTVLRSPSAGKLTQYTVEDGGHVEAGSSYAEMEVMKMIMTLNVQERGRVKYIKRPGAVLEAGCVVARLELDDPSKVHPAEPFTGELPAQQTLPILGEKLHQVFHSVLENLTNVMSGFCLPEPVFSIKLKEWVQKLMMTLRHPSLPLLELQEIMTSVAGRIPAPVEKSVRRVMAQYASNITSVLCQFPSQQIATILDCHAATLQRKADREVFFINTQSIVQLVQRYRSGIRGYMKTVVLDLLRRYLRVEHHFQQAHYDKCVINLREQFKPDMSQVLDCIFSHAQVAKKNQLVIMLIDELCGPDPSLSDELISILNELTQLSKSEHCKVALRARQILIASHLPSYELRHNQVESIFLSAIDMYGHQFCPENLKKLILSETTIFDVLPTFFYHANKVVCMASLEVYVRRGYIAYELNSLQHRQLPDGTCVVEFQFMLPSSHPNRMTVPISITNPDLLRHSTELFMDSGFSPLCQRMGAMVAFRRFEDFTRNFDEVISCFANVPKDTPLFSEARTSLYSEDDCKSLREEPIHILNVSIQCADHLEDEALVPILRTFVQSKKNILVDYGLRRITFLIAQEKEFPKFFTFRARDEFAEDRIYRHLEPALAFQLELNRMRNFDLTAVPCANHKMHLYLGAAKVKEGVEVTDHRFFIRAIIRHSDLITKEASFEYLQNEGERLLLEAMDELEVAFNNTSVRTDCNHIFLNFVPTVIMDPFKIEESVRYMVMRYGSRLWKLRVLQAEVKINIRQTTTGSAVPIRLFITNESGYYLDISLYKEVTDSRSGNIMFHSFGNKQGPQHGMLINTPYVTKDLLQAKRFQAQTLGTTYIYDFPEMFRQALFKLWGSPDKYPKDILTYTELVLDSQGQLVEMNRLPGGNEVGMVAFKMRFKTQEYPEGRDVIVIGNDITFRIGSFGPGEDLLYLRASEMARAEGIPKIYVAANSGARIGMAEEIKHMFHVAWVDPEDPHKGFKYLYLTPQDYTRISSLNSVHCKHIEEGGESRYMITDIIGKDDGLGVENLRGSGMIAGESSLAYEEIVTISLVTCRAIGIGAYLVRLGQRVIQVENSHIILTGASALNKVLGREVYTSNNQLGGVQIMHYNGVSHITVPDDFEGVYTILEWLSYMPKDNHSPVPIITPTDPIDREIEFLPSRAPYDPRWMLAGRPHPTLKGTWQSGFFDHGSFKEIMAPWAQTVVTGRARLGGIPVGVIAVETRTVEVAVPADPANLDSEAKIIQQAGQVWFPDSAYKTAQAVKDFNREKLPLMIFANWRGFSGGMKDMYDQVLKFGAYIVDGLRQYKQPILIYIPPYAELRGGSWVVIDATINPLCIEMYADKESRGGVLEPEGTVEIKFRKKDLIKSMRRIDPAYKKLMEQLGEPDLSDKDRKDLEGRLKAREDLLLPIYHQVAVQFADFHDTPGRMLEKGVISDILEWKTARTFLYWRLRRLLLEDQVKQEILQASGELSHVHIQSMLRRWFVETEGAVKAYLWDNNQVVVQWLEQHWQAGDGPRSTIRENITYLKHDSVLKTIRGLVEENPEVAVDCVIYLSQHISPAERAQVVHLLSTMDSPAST
Description: The detailed procedure is as follows. […] 10 μL ADP glo reagent was added. […] 20 μL kinase detection reagent was added.

C. albicans = assay: Antifungal Activity Assay (broth microtiter MIC), C. albicans; assay type: cell-based, Candida albicans; conditions: Candida albicans, ATCC90028, 48 h, ATCC 90028, 3 replicates, MIC recorded at 48 h, read-out: MIC, C. albicans ATCC 90028
How it was run: (§1)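 Endpoint: lowest concentration visibly inhibiting growth relative to control after 48 h. Inoculum of 2.5×10^3 CFU/mL final in RPMI 1640+MOPS, prepared from overnight 35° C agar cultures; test compounds diluted in water to 128 μg/mL before plating.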

C. krusei = assay: Antifungal Activity Assay (broth microtiter MIC), C. krusei; assay type: cell-based, Candida krusei; conditions: Pichia kudriavzevii, ATCC6258, 48 h, ATCC 6258, 3 replicates, MIC recorded at 48 h, read-out: MIC, C. krusei ATCC 6258
How it was run: as §1

C. parapsilosis = assay: Antifungal Activity Assay (broth microtiter MIC), C. parapsilosis; assay type: cell-based, Candida parapsilosis; conditions: Lodderomyces parapsilosis, ATCC22019, 48 h, ATCC 22019, 3 replicates, MIC recorded at 48 h, read-out: MIC, C. parapsilosis ATCC 22019
How it was run: as §1

Botrtyis cinerea (Bc) = assay: Growth inhibition assay of fungal pathogens, Bc; assay type: cell-based; conditions: 48 h, Botrtyis cinerea, read-out: Concentration at 90% Inhibition Bc
How it was run: (§2)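 Spores diluted in 17% V8 liquid media and incubated with compound at final 50, 10, 2 ppm or 2, 0.4, 0.08 ppm (2% DMSO). OD600 plus visual ratings at 24 and 48 hours, blank-subtracted; percent growth inhibition from 48 h readings relative to 2% DMSO control.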

[1] = tested on: Collectotrichum graminicola (Cg); assay: Growth inhibition assay of fungal pathogens, Cg; assay type: cell-based; conditions: 48 h, Collectotrichum graminicola, read-out: Concentration at 90% Inhibition Cg
How it was run: as §2

Diplodia maydis (Dm) = assay: Growth inhibition assay of fungal pathogens, Dm; assay type: cell-based; conditions: Stenocarpella maydis, 48 h, Diplodia maydis, read-out: Concentration at 90% Inhibition Dm
How it was run: as §2

[2] = tested on: Fusarium moniliforme (Fm); assay: Growth inhibition assay of fungal pathogens, Fm; assay type: cell-based; conditions: Fusarium verticillioides, 48 h, Fusarium moniliforme, read-out: Concentration at 90% Inhibition Fm
How it was run: as §2

[3] = tested on: Fusarium virguliforme (Fv); assay: Growth inhibition assay of fungal pathogens, Fv; assay type: cell-based; conditions: 48 h, read-out: Concentration at 90% Inhibition Fv
How it was run: as §2

[4] = tested on: Phytophthora capsici (Pc); assay: Growth inhibition assay of fungal pathogens, Pc; assay type: cell-based; conditions: 48 h, read-out: Concentration at 90% Inhibition Pc
How it was run: as §2

Rhizoctonia solani (Rs) = assay: Growth inhibition assay of fungal pathogens, Rs; assay type: cell-based; conditions: 48 h, mycelial plugs, read-out: Concentration at 90% Inhibition Rs
Septoria tritici (St) = assay: Growth inhibition assay of fungal pathogens, St; assay type: cell-based; conditions: Zymoseptoria tritici, 48 h, Septoria tritici, read-out: Concentration at 90% Inhibition St
How it was run: as §2

fungal (fACC2) = fungal (fACC2) (UniProt Q00955); conditions: read-out: fACC2 (in vitro ACC2 Inhibition Assay, IC50), ADP-Glo, 5 nM ACC2, 20 μM ATP, 20 μM acetyl-CoA
Chain of fungal (fACC2) (Q00955 whole entry): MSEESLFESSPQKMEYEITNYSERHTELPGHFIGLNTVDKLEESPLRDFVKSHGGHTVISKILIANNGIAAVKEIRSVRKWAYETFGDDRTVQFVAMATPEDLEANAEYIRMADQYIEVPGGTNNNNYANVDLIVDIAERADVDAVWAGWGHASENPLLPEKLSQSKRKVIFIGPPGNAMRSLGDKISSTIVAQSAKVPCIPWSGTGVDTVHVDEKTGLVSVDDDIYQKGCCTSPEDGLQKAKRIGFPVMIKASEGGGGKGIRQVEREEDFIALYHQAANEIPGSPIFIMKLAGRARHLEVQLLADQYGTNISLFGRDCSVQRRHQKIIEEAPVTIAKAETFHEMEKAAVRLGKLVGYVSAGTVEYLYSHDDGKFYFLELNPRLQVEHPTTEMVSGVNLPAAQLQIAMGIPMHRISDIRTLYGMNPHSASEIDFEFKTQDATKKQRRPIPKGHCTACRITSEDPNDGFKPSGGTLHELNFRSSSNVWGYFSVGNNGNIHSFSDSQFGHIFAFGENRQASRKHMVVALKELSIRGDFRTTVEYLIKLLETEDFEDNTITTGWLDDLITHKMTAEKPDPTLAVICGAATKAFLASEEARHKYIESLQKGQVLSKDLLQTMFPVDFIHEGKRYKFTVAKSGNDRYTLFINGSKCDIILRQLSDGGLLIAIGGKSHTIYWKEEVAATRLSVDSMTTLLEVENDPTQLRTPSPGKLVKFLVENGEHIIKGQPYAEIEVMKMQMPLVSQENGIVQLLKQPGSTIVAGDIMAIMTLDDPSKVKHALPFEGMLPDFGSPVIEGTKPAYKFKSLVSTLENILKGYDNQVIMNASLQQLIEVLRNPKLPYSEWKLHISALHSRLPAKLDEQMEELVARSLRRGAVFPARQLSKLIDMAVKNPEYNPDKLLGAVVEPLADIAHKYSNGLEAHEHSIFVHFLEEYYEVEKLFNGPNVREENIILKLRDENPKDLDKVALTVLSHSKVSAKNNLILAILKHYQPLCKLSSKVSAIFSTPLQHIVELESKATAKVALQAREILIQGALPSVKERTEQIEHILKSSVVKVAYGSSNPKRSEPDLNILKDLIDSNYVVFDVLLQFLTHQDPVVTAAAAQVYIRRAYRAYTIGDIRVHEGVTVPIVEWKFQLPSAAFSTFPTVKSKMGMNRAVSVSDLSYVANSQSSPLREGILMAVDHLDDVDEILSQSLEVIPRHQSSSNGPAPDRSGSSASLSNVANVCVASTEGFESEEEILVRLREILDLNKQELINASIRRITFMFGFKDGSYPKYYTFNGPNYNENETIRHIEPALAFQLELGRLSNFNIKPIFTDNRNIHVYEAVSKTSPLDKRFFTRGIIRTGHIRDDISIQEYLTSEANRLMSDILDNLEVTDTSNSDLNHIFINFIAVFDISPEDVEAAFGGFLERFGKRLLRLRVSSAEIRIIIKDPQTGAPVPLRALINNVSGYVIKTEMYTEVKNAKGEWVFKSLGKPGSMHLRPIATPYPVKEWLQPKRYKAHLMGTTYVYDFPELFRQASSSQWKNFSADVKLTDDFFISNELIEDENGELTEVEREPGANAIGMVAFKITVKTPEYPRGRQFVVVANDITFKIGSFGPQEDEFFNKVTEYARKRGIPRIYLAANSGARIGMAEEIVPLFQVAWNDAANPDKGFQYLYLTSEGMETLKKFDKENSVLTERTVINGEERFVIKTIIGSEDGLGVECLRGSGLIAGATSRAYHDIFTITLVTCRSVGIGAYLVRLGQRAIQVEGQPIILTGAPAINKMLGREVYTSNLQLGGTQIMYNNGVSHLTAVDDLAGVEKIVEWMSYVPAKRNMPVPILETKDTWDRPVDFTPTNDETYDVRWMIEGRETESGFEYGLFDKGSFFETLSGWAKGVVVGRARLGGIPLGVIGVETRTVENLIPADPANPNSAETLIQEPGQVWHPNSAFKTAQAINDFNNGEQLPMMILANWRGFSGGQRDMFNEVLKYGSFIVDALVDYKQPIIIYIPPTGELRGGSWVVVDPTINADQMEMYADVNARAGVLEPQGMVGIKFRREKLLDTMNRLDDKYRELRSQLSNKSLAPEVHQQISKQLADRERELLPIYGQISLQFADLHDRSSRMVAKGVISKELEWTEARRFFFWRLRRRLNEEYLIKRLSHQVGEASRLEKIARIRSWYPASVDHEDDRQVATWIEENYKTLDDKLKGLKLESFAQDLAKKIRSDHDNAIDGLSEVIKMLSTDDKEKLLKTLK

[5] = growth inhibition at 48 hours vs 2% DMSO control
[6] = growth inhibition vs 2% DMSO control at 48 hours

| SMILES | IC50 (human (hACC2); Table 2b, additional results) [nM] | MIC (C. albicans; Table 3b (additional results)) [µg/mL] | MIC (C. krusei; Table 3b (additional results)) [µg/mL] | MIC (C. parapsilosis; Table 3b (additional results)) [µg/mL] | IC90 (Botrtyis cinerea (Bc); [5]) [µg/mL] | IC90 [1, 5] [µg/mL] | IC90 (Diplodia maydis (Dm); [5]) [µg/mL] | IC90 [2, 5] [µg/mL] | IC90 [3, 5] [µg/mL] | IC90 [4, 5] [µg/mL] | IC90 (Rhizoctonia solani (Rs); [5]) [µg/mL] | IC90 (Septoria tritici (St); [5]) [µg/mL] | IC50 (fungal (fACC2); Table 2b, additional results) [nM] | other results |
| --- | --- | --- | --- | --- | --- | --- | --- | --- | --- | --- | --- | --- | --- | --- |
| COc1ccc(F)cc1[C@@H](O)Cn1c(=O)n([C@@H](C)C(=O)N(C)C(C)C)c(=O)c2c(C)c(-n3nccn3)sc21 [Compound I-198] | 1 to 5 | 2.01 to 4 (≈ 3.69 to 7.34 µM) | 2.01 to 4 (≈ 3.69 to 7.34 µM) | 2.01 to 4 (≈ 3.69 to 7.34 µM) | 0.4 (≈ 0.734 µM) | 0.4 (≈ 0.734 µM) | 0.4 (≈ 0.734 µM) | 0.08 (≈ 0.147 µM) | 0.4 (≈ 0.734 µM) | 10 (≈ 18.4 µM) | 0.08 (≈ 0.147 µM) | > 50 | 1 to 5 |  |
| COCCO[C@@H](Cn1c(=O)n([C@H](C)C(=O)NC(C)C)c(=O)c2c(C)c(-n3nccn3)sc21)c1cc(F)ccc1OC [Compound I-67, (R)-2-(1-((R)-2-(5-fluoro-2-methoxyphenyl)-2-(2-methoxy-ethoxy)ethyl)-5-methyl-2,4-dioxo-6-(2H-1,2,3-triazol-2-yl)-1,4-dihydrothieno[2,3-d]pyrimidin-3(2H)-yl)-N-isopropylpropanamide] | 5 to 10 | > 4.01 | 2.01 to 4 (≈ 3.41 to 6.8 µM) | 1.01 to 2 (≈ 1.72 to 3.4 µM) |  |  |  |  |  |  |  |  | 1 to 5 | IC50 (human (hACC2); Table 2a): 5 to 10 nM; MIC (C. albicans; Table 3a): 1.1 to 2 µg/mL (≈ 1.87 to 3.4 µM); MIC (C. krusei; Table 3a): 0.25 to 1 µg/mL (≈ 0.425 to 1.7 µM); MIC (C. parapsilosis; Table 3a): 1.1 to 2 µg/mL (≈ 1.87 to 3.4 µM); IC90 (Botrtyis cinerea (Bc); [6]): 0.08 µg/mL (≈ 0.136 µM); IC90 [1, 6]: 0.08 µg/mL (≈ 0.136 µM); IC90 (Diplodia maydis (Dm); [6]): 0.08 µg/mL (≈ 0.136 µM); IC90 [2, 6]: 0.08 µg/mL (≈ 0.136 µM); IC90 [3, 6]: 0.4 µg/mL (≈ 0.68 µM); IC90 [4, 6]: > 50 µg/mL; IC90 (Rhizoctonia solani (Rs); [6]): 0.08 µg/mL (≈ 0.136 µM); IC90 (Septoria tritici (St); [6]): 10 µg/mL (≈ 17 µM); IC50 (fungal (fACC2); Table 2a): 1 to 5 nM |
| Cc1c(-n2nccn2)sc2c1c(=O)n(C(C)(C)C(=O)NC(C)C)c(=O)n2CCc1cc(F)ccc1CCCC#N [Compound I-278] | 10 to 40 | 2.01 to 4 (≈ 3.55 to 7.07 µM) | 1.01 to 2 (≈ 1.79 to 3.54 µM) | 2.01 to 4 (≈ 3.55 to 7.07 µM) | 2 (≈ 3.54 µM) | 10 (≈ 17.7 µM) | 2 (≈ 3.54 µM) | 0.4 (≈ 0.707 µM) | 0.4 (≈ 0.707 µM) | > 50 | 10 (≈ 17.7 µM) | > 50 | 1 to 5 |  |
| Cc1c(-n2nccn2)sc2c1c(=O)n(C(C)(C)C(=O)NC(C)C)c(=O)n2CCc1cc(F)ccc1OC(C)C [Compound I-281] | 10 to 40 | > 4.01 | 1.01 to 2 (≈ 1.81 to 3.59 µM) | 2.01 to 4 (≈ 3.61 to 7.19 µM) | 2 (≈ 3.59 µM) | 10 (≈ 18 µM) | 2 (≈ 3.59 µM) | 0.08 (≈ 0.144 µM) | 0.08 (≈ 0.144 µM) | > 50 | 10 (≈ 18 µM) | > 50 | 0.3 to 1 |  |
